A short description of data set [1]: Stability in rat liver microsomes. The class given is in vitro ADME. In general terms: Microsomes from liver hold many membrane-bound enzymes, among them those of drug oxidation.
A short description of the next data set: Caco2 permeability. The class given is in vitro ADME. The settings on record: human, Caco-2. In general terms: Caco-2 cells form a polarised layer with tight junctions and transporters.
Data set [2] in a line: Pharmacokinetics in rats after single po and iv dosing. The settings on record: for AUC(0-inf): plasma.
In the next data set the test system is Caco2. The data set is described as follows: Caco2 permeability. The class given is in vitro ADME.
Setting [3] is: rats, po, dose normalized to 30 mg/kg.

Marks after values point to notes of the source that are not given here.

By fraction remaining is commonly meant what is left of the initial amount, in per cent. Low values mean a greater loss, high ones greater stability. In general, Papp refers to the rate of passage across a membrane or cell layer, normalised by area and donor concentration. A lower Papp goes with poor permeation. In general, solubility refers to the dissolved amount per volume that the medium holds. Higher therefore signals much dissolved substance. A word on the half-life: it is how long it takes for the measured level to halve. Read a low half-life as fast loss. A word on the AUC: it is concentration integrated over time. A lower AUC goes with low exposure. For orientation: Cmax means the peak of the concentration-time curve. Broadly, the AUC(0-inf) is the area under the concentration-time curve extrapolated to infinity. Regarding `CCCCN1C(=O)[C@H](CC2CCCCC2)NC(=O)C12CCN(Cc1ccc(Oc3ccc(C(=O)O)cc3)cc1)CC2.Cl` [Compound 12, 4-(4-{[(3S)-1-butyl-3-(cyclohexylmethyl)-2,5-dioxo-1,4,9-triaza-spiro[5.5]undec-9-yl]methyl}phenoxy)benzoic acid hydrochloride], the share remaining at 0.25 h in data set [1] came to 22%. Further, in the data set “Caco2 permeability”, the Papp was 26.4 ×10⁻⁶ cm/s. The same molecule came in with a solubility in “Solubility” of 26 µM. Further, in data set [2] (rat, in vivo, iv, 30 mg/kg), the clearance worked out at 16 mL/min/kg and the half-life stood at 11.1 min. Further, in data set [2] (rat, in vivo, po, 30 mg/kg), the AUC is 10500 ng·h/mL, the highest level (Cmax) was 7200 ng/mL and the half-life was found to be 48.4 min. The same molecule had an AUC(0-inf) in data set [2] (rat, iv, 30 mg/kg) of 3090 ng·h/mL. Moreover, the AUC(0-inf) in data set [2] (rat, po, 30 mg/kg) is 10500 ng·h/mL. Also, the BA in data set [2] (rats, 30 mg/kg, po) is reported as 34.1%.

For the molecule `CCCCN1C(=O)C(CC2CCCCC2)NC(=O)C12CCN(Cc1ccc(Oc3ccccc3)cc1)CC2.Cl` (centres unmarked) [Compound 1a], in the data set on Caco2, the Caco2 permeability entry was “not detected”. In “Solubility”, the solubility entry is recorded as “less than 5 μM”. The clearance in data set [2] (rat, in vivo, iv, 30 mg/kg) came out at 113 mL/min/kg. Moreover, the BA in data set [2] (rats, 30 mg/kg, po) was 1.9%. In data set [2] (setting [3]), the “AUC (0-∞) (dose normalized to 30 mg/kg)” value was 74.4^a ng h/m and the “Cmax (dose normalized to 30 mg/kg)” value was 16.7^a ng/mL.

The record behind these values is PMC7553643 (Bioorganic & medicinal chemistry letters, 2009).
